US7868135B2, “Compositions of lipopeptide antibiotic derivatives and methods of use thereof” (priority 2003, dated 2011)
Starred links: 1 amine or outer side, 2 acyl side, 3 side chain; linkers in the order of their positions; H or OH if unused. Positions of bridges follow the written chain, without caps; N, C: chain ends. Non-standard residues stand in square brackets, D forms with d. Residues, ends and D or L forms follow the SMILES beside them. ξ: configuration not given here. *: point of attachment. X35 = CC(C(N[*:1])C(=O)[*:2])N(Cc1ccc(O)cc1)Cc1ccc(O)cc1; Hexadecanesulfonyl = CCCCCCCCCCCCCCCCS(=O)(=O)*; X22 = CC(NC(=O)[C@H](N)CO)C(N[*:1])C(=O)[*:2]; ξAbu(βξ-NH2) = CC(N[*:3])C(N[*:1])C(=O)[*:2]; X23 = CC(NCc1ccc(O)cc1)C(N[*:1])C(=O)[*:2]; X36 = CC(NC(=O)CN(C)C)C(N[*:1])C(=O)[*:2]; Pentadecanoyl = CCCCCCCCCCCCCCC(=O)*; ξAsp(βξ-Me) = CC(C(=O)O)C(N)C(=O)O; Palmitoyl = CCCCCCCCCCCCCCCC(=O)*; X1 = O=C(Cc1ccc(N[*:1])cc1)[*:2]; ξAbu(3ξ-NH2) = CC(N)C(N)C(=O)O; NH(CH2)11CH3 = CCCCCCCCCCCCN*; Undecanoyl = CCCCCCCCCCC(=O)*; Decanoyl = CCCCCCCCCC(=O)*; X19 = CCCCCCCCCCS(=O)(=O)*; 3Abz = Nc1cccc(C(=O)O)c1; Pip = O=C(O)[CH]1CCCCN1; ξD = NC(CC(=O)O)C(=O)O; ξPip = O=C(O)C1CCCCN1; CO = O=C([*:1])[*:2]; ξV = CC(C)C(N)C(=O)O; ξP = O=C(O)C1CCCN1

Each molecule was assayed on Staphylococcus aureus (MSSA). Conditions: 24 h.
In short: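 Broth microdilution MIC per NCCLS M7-A6 with doubling serial dilutions, in cation-adjusted Mueller-Hinton broth supplemented with 0.625 mM calcium.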

Row | MIC | Compound
1 | 32 µg/mL | CCCCCCCCNC(=O)NC(CC(=O)O)C(=O)NC1C(=O)N2CCCCC2C(=O)NC(C(C)C(=O)O)C(=O)NC(CC(=O)O)C(=O)NCC(=O)NC(CC(=O)O)C(=O)NCC(=O)NC(C(C)N)C(=O)NC(C(C)C)C(=O)N2CCCC2C(=O)NC1C (stereo not shown) [Compound 252, CH3—(CH2)7—NH—C(═O)-Amphomycin]
2 | 2 to 4 µg/mL | CCCCCCCCCCCCNC(=O)NCC(=O)NC(CC(=O)O)C(=O)NC1C(=O)N2CCCCC2C(=O)NC(C(C)C(=O)O)C(=O)NC(CC(=O)O)C(=O)NCC(=O)NC(CC(=O)O)C(=O)NCC(=O)NC(C(C)N)C(=O)NC(C(C)C)C(=O)N2CCCC2C(=O)NC1C (stereo not drawn) [Compound 254, CH3—(CH2)11—NH—C(═O)-Gly-Amphomycin] ({NH(CH2)11CH3-CO}-GD[ξAbu(βξ-NH2)][Pip][ξAsp(βξ-Me)]DGDG[ξAbu(3ξ-NH2)]VP; lactam 3-C; configuration not given here)
3 | 4 µg/mL | CCCCCCCCCCCCCCC(=O)NC(CC(=O)O)C(=O)NC1C(=O)N2CCCCC2C(=O)NC(C(C)C(=O)O)C(=O)NC(CC(=O)O)C(=O)NCC(=O)NC(CC(=O)O)C(=O)NCC(=O)NC(C(C)NC(=O)[C@H](N)CO)C(=O)NC(C(C)C)C(=O)N2CCCC2C(=O)NC1C (stereo partly drawn) [Compound 262, C15-Amphomycin-(D-Ser)] (Pentadecanoyl-[ξD][ξAbu(βξ-NH2)][ξPip][ξAsp(βξ-Me)][ξD]G[ξD]G[X22][ξV][ξP]; lactam 2-C)
4 | 32 µg/mL | CCCCCCCCCCCCCCC(=O)NC(CC(=O)O)C(=O)NC1C(=O)N2CCCCC2C(=O)NC(C(C)C(=O)O)C(=O)NC(CC(=O)O)C(=O)NCC(=O)NC(CC(=O)O)C(=O)NCC(=O)NC(C(C)NC(=O)[C@H](N)Cc2ccc(O)cc2)C(=O)NC(C(C)C)C(=O)N2CCCC2C(=O)NC1C (stereo partly drawn) [Compound 263, C15-Amphomycin-(D-Tyr)]
5 | 8 µg/mL | CCCCCCCCCCCCCCC(=O)NC(CC(=O)O)C(=O)NC1C(=O)N2CCCCC2C(=O)NC(C(C)C(=O)O)C(=O)NC(CC(=O)O)C(=O)NCC(=O)NC(CC(=O)O)C(=O)NCC(=O)NC(C(C)NC(=O)[C@H](N)Cc2c[nH]c3ccccc23)C(=O)NC(C(C)C)C(=O)N2CCCC2C(=O)NC1C (stereo partly drawn) [Compound 264, C15-Amphomycin-(D-Trp)]
6 | 8 to 16 µg/mL | CCCCCCCCCCCCCCC(=O)NC(CC(=O)O)C(=O)NC1C(=O)N2CCCCC2C(=O)NC(C(C)C(=O)O)C(=O)NC(CC(=O)O)C(=O)NCC(=O)NC(CC(=O)O)C(=O)NCC(=O)NC(C(C)NCc2ccc(O)cc2)C(=O)NC(C(C)C)C(=O)N2CCCC2C(=O)NC1C (stereo not drawn) [Compound 266, C15-Amphomycin-9-(4-Hydroxybenzyl)] (Pentadecanoyl-D[ξAbu(βξ-NH2)][Pip][ξAsp(βξ-Me)]DGDG[X23]VP; lactam 2-C; configuration not given here)
7 | 8 µg/mL | CCCCCCCCCCCCCCC(=O)NC(CC(=O)O)C(=O)NC1C(=O)N2CCCCC2C(=O)NC(C(C)C(=O)O)C(=O)NC(CC(=O)O)C(=O)NCC(=O)NC(CC(=O)O)C(=O)NCC(=O)NC(C(C)N(Cc2ccc(O)cc2)Cc2ccc(O)cc2)C(=O)NC(C(C)C)C(=O)N2CCCC2C(=O)NC1C (stereo not drawn) [Compound 267, C15-Amphomycin-9-N,N-di-(p-Hydroxybenzyl)] (Pentadecanoyl-D[ξAbu(βξ-NH2)][Pip][ξAsp(βξ-Me)]DGDG[X35]VP; lactam 2-C; configuration not given here)
8 | 1 µg/mL | CCCCCCCCCCCCCCC(=O)NC(CC(=O)O)C(=O)NC1C(=O)N2CCCCC2C(=O)NC(C(C)C(=O)O)C(=O)NC(CC(=O)O)C(=O)NCC(=O)NC(CC(=O)O)C(=O)NCC(=O)NC(C(C)NC(=O)CN(C)C)C(=O)NC(C(C)C)C(=O)N2CCCC2C(=O)NC1C (stereo not drawn) [Compound 268, C15-Amphomycin-9-(N,N-Dimethylglycine)] (Pentadecanoyl-D[ξAbu(βξ-NH2)][Pip][ξAsp(βξ-Me)]DGDG[X36]VP; lactam 2-C; configuration not given here)
9 | 4 to 8 µg/mL | CCCCCCCCCCS(=O)(=O)NCC(=O)NC(CC(=O)O)C(=O)NC1C(=O)N2CCCCC2C(=O)NC(C(C)C(=O)O)C(=O)NC(CC(=O)O)C(=O)NCC(=O)NC(CC(=O)O)C(=O)NCC(=O)NC(C(C)N)C(=O)NC(C(C)C)C(=O)N2CCCC2C(=O)NC1C (stereo not drawn) [Compound 269, CH3—(CH2)9—SO2-Gly-Amphomycin] (X19-GD[ξAbu(βξ-NH2)][Pip][ξAsp(βξ-Me)]DGDG[ξAbu(3ξ-NH2)]VP; lactam 3-C; configuration not given here)
10 | 16 to 32 µg/mL | CCCCCCCCCCCCCCCCS(=O)(=O)N[C@@H](Cc1ccccc1)C(=O)NC(CC(=O)O)C(=O)NC1C(=O)N2CCCCC2C(=O)NC(C(C)C(=O)O)C(=O)NC(CC(=O)O)C(=O)NCC(=O)NC(CC(=O)O)C(=O)NCC(=O)NC(C(C)N)C(=O)NC(C(C)C)C(=O)N2CCCC2C(=O)NC1C (stereo partly drawn) [Compound 270, CH3—(CH2)15—SO2-Phe-Amphomycin] (Hexadecanesulfonyl-F[ξD][ξAbu(βξ-NH2)][ξPip][ξAsp(βξ-Me)][ξD]G[ξD]G[ξAbu(3ξ-NH2)][ξV][ξP]; lactam 3-C)
11 | 0.5 to 1 µg/mL | CCCCCCCCCCCCCCNC(=O)NC(CC(=O)O)C(=O)NC1C(=O)N2CCCCC2C(=O)NC(C(C)C(=O)O)C(=O)NC(CC(=O)O)C(=O)NCC(=O)NC(CC(=O)O)C(=O)NCC(=O)NC(C(C)NC(=O)CNC(=O)[C@@H](N)CCCCN)C(=O)NC(C(C)C)C(=O)N2CCCC2C(=O)NC1C (stereo partly shown) [Compound 277, CH3—(CH2)13—NH—C(═O)-Amphomycin-9-Gly-Lys]
12 | 0.5 µg/mL | CCCCCCCCCCCCCCNC(=O)NC(CC(=O)O)C(=O)NC1C(=O)N2CCCCC2C(=O)NC(C(C)C(=O)O)C(=O)NC(CC(=O)O)C(=O)NCC(=O)NC(CC(=O)O)C(=O)NCC(=O)NC(C(C)NC(=O)CN)C(=O)NC(C(C)C)C(=O)N2CCCC2C(=O)NC1C (stereo not shown) [Compound 279, CH3—(CH2)13—NH—C(═O)-Amphomycin-9-Gly]
13 | 2 µg/mL | CCCCCCCCCCCCCCCC(=O)Nc1ccc(CC(=O)NC(CC(=O)O)C(=O)NC2C(=O)N3CCCCC3C(=O)NC(C(C)C(=O)O)C(=O)NC(CC(=O)O)C(=O)NCC(=O)NC(CC(=O)O)C(=O)NCC(=O)NC(C(C)N)C(=O)NC(C(C)C)C(=O)N3CCCC3C(=O)NC2C)cc1 (stereo not drawn) [Compound 281, C16-(p-Apa)-Amphomycin] (Palmitoyl-[X1]D[ξAbu(βξ-NH2)][Pip][ξAsp(βξ-Me)]DGDG[ξAbu(3ξ-NH2)]VP; lactam 3-C; configuration not given here)
14 | 2 µg/mL | CCCCCCCCCCCNC(=O)NCCC(=O)NC(CC(=O)O)C(=O)NC1C(=O)N2CCCCC2C(=O)NC(C(C)C(=O)O)C(=O)NC(CC(=O)O)C(=O)NCC(=O)NC(CC(=O)O)C(=O)NCC(=O)NC(C(C)N)C(=O)NC(C(C)C)C(=O)N2CCCC2C(=O)NC1C (stereo not drawn) [Compound 286, CH3—(CH2)10—NH—C(═O)-(β-Ala)-Amphomycin]
15 | 2 µg/mL | CCCCCCCCCCCCCCNC(=O)NCCCC(=O)NC(CC(=O)O)C(=O)NC1C(=O)N2CCCCC2C(=O)NC(C(C)C(=O)O)C(=O)NC(CC(=O)O)C(=O)NCC(=O)NC(CC(=O)O)C(=O)NCC(=O)NC(C(C)N)C(=O)NC(C(C)C)C(=O)N2CCCC2C(=O)NC1C (stereo not shown) [Compound 291, CH3—(CH2)13—NH—C(═O)-(GABA)-Amphomycin]
16 | 2 µg/mL | CCCCCCCCCC(=O)Nc1cccc(C(=O)NC(CC(=O)O)C(=O)NC2C(=O)N3CCCCC3C(=O)NC(C(C)C(=O)O)C(=O)NC(CC(=O)O)C(=O)NCC(=O)NC(CC(=O)O)C(=O)NCC(=O)NC(C(C)N)C(=O)NC(C(C)C)C(=O)N3CCCC3C(=O)NC2C)c1 (stereo not drawn) [Compound 293, C10-(M-Aminobenzoyl)-Amphomycin] ({Decanoyl-3Abz}-D[ξAbu(βξ-NH2)][Pip][ξAsp(βξ-Me)]DGDG[ξAbu(3ξ-NH2)]VP; lactam 2-C; configuration not given here)
17 | 0.5 µg/mL | CCCCCCCCCCC(=O)Nc1cccc(C(=O)NC(CC(=O)O)C(=O)NC2C(=O)N3CCCCC3C(=O)NC(C(C)C(=O)O)C(=O)NC(CC(=O)O)C(=O)NCC(=O)NC(CC(=O)O)C(=O)NCC(=O)NC(C(C)N)C(=O)NC(C(C)C)C(=O)N3CCCC3C(=O)NC2C)c1 (stereo not drawn) [Compound 294, C11-(M-Aminobenzoyl)-Amphomycin] ({Undecanoyl-3Abz}-D[ξAbu(βξ-NH2)][Pip][ξAsp(βξ-Me)]DGDG[ξAbu(3ξ-NH2)]VP; lactam 2-C; configuration not given here)
18 | 0.5 µg/mL | CCCCCCCCCCCCCCNC(=O)NCCC(=O)NC(CC(=O)O)C(=O)NC1C(=O)N2CCCCC2C(=O)NC(C(C)C(=O)O)C(=O)NC(CC(=O)O)C(=O)NCC(=O)NC(CC(=O)O)C(=O)NCC(=O)NC(C(C)N)C(=O)NC(C(C)C)C(=O)N2CCCC2C(=O)NC1C (stereo not drawn) [Compound 295, CH3—(CH2)13—NH—C(═O)-(β-Ala)-Amphomycin]

Row | Compound | MIC
19 | CCCCCCCC(=O)Nc1ccc(C(=O)NC(CC(=O)O)C(=O)NC2C(=O)N3CCCCC3C(=O)NC(C(C)C(=O)O)C(=O)NC(CC(=O)O)C(=O)NCC(=O)NC(CC(=O)O)C(=O)NCC(=O)NC(C(C)N)C(=O)NC(C(C)C)C(=O)N3CCCC3C(=O)NC2C)cc1 (stereo not shown) [Compound 282, C8-PABA-Amphomycin] | 32 µg/mL
20 | CCCCCCCCCC(=O)Nc1ccc(C(=O)NC(CC(=O)O)C(=O)NC2C(=O)N3CCCCC3C(=O)NC(C(C)C(=O)O)C(=O)NC(CC(=O)O)C(=O)NCC(=O)NC(CC(=O)O)C(=O)NCC(=O)NC(C(C)N)C(=O)NC(C(C)C)C(=O)N3CCCC3C(=O)NC2C)cc1 (stereo not shown) [Compound 283, C10-PABA-Amphomycin] | 2 µg/mL
21 | CCCCCCCCCCC(=O)Nc1ccc(C(=O)NC(CC(=O)O)C(=O)NC2C(=O)N3CCCCC3C(=O)NC(C(C)C(=O)O)C(=O)NC(CC(=O)O)C(=O)NCC(=O)NC(CC(=O)O)C(=O)NCC(=O)NC(C(C)N)C(=O)NC(C(C)C)C(=O)N3CCCC3C(=O)NC2C)cc1 (stereo not shown) [Compound 284, C11-PABA-Amphomycin] | 16 µg/mL
22 | CCCCCCCCCCCCC(=O)Nc1ccc(C(=O)NC(CC(=O)O)C(=O)NC2C(=O)N3CCCCC3C(=O)NC(C(C)C(=O)O)C(=O)NC(CC(=O)O)C(=O)NCC(=O)NC(CC(=O)O)C(=O)NCC(=O)NC(C(C)N)C(=O)NC(C(C)C)C(=O)N3CCCC3C(=O)NC2C)cc1 (stereo not shown) [Compound 285, C13-PABA-Amphomycin] | 0.25 µg/mL
